Measured values from patent US11203613B2, “Peptidomimetic proteasome inhibitors” (CORNELL UNIVERSITY, priority 2017, dated 2021).
Where “and” joins values, the source holds several entries; their conditions need not be identical. Identical values can stand only once. Like-named read-outs stand apart in the source and are kept apart here.

What was measured:
[1] = target: Human Constitutive (Hu C-20S) β5 Active Subunit (Homo sapiens, UniProt P28074); test: IC50 determination, human constitutive 20S proteasome β5c (suc-LLVY-AMC hydrolysis); type: biochemical; conditions: Table 2; several values in a cell are repeat determinations; read-out: Hu c-20S IC50
[2] = target: Mtb20SOG (Mycobacterium tuberculosis, UniProt P9WHT9); test: biochemical
Sequence of Mtb20SOG (P9WHT9 58-291): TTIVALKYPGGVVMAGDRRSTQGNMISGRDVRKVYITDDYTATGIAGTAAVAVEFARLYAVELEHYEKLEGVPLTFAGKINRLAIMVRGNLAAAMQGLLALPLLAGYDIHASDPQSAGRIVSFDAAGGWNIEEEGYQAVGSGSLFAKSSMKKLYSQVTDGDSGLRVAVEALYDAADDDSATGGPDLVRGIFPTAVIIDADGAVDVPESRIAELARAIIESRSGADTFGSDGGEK

[3] = Table 2, several values in a cell are repeat determinations

SMILES	IC50 [1]	IC50 [2]	IC50 [2, 3]
Cc1cc(C(=O)N[C@@H](CC(=O)N2CCCC[C@@H]2C)C(=O)N[C@@H](C)c2ncc(-c3ccc(F)cc3)[nH]2)no1 [CF-503105]	> 18000 nM and 19000 nM	259 nM and 256 nM	
CC[C@H]1CCCCN1C(=O)C[C@H](NC(=O)CCC(C)C)C(=O)N[C@@H](C)c1ncc(-c2ccc(F)cc2F)[nH]1 [CF-503213]	4490 nM and 4430 nM		33 nM and 29 nM
CC(C)CCC(=O)N[C@@H](CC(=O)N1CCC[C@@H]1c1ccccc1)C(=O)NC(C)c1nc2ccccc2[nH]1 (some centres unmarked) [CF-503153]	19800 nM		29 nM and 53 nM
C[C@H](NC(=O)[C@H](CC(=O)N1CCCC[C@@H]1C)NS(=O)(=O)c1ccccc1)c1ncc(-c2ccc(F)cc2F)[nH]1 [CF-503142]	8130 nM		650 nM
CC(C)CCC(=O)N[C@@H](CC(=O)N1CCCC[C@@H]1C)C(=O)NCc1nc2ccccc2[nH]1 [CF-503193]	17600 nM		647 nM
CC(C)CCC(=O)N[C@@H](CC(=O)N1CCCC1)C(=O)N[C@@H](C)c1ncc(-c2ccc(F)cc2F)[nH]1 [CF-503159]	10400 nM		3470 nM
CC[C@H]1CCCCN1C(=O)C[C@H](Nc1nc2ccc(C)cc2o1)C(=O)N[C@@H](C)c1nc2c(F)cccc2[nH]1 [CF-503360]	1120 nM and 1430 nM and 1420 nM and 1440 nM		125 nM and 190 nM and 353 nM and 361 nM
Cc1cc(C(=O)N[C@@H](CC(=O)N2CCCC[C@@H]2C)C(=O)N[C@@H](C)c2ncc(-c3ccccc3F)[nH]2)no1 [CF-503103]	> 15000 nM	160 nM and 306 nM	
C[C@H](NC(=O)[C@H](CC(=O)N1CCCC[C@@H]1C)NC(=O)CCC1CC1)c1ncc(-c2ccc(F)cc2F)[nH]1 [CF-503204]	11600 nM		98 nM
CC(C)c1noc(N[C@@H](CC(=O)N2CCCC[C@@H]2C)C(=O)N[C@@H](C)c2ncc(-c3ccc(F)cc3F)[nH]2)n1 [CF-503477]	2290 nM		2050 nM
CC(NC(=O)C(CC(=O)N1CCCCC1C)NC(=O)C1CC1C(C)C)c1nc(-c2ccc(F)cc2F)c[nH]1 (centres unmarked) [CF-503475]	4770 nM	34 nM	
CC(NC(=O)C(CC(=O)N1CCCCC1C)NC(=O)C1CC1c1ccccc1)c1nc2c(F)cccc2[nH]1 (centres unmarked) [CF-503363]	8000 nM	50.7 nM	
CC(C)CCNc1nc(C(=O)N[C@@H](C)C(=O)NCc2ccc(F)cc2F)cc(N2CCCC2)n1 [CF-503175]	4590 nM and 5460 nM		4600 nM and 5600 nM
C[C@H](NC(=O)[C@H](CC(=O)N1CCCC[C@@H]1C)NC(=O)CCC(C)(C)C)c1nc2c(F)cccc2[nH]1 [CF-503227]	4830 nM and 6490 nM		79 nM and 81 nM
CCC1CCCCN1C(=O)CC(NC(=O)C1CC1c1ccccc1)C(=O)NC(C)c1nc2c(F)cccc2[nH]1 (centres unmarked)	8140 nM	51 nM	
C[C@H](NC(=O)[C@H](CC(=O)N1CCCC[C@@H]1C)NC(=O)CC1CCOCC1)c1ncc(-c2ccc(F)cc2F)[nH]1 [CF-503139]	12800 nM and 10300 nM	89 nM and 148 nM	
Cc1cc(C(=O)N[C@@H](CC(=O)N2CCC[C@@H]2c2ccccc2)C(=O)NC(C)c2nc3ccccc3[nH]2)no1 (some centres unmarked) [CF-503127]	7000 nM	84 nM and 100 nM	
CC[C@H]1CCCCN1C(=O)C[C@H](NC(=O)CCN(C)C)C(=O)N[C@@H](C)c1nc2c(F)cccc2[nH]1 [CF-503356]	6400 nM	6400 nM	
Cc1cc(C(=O)N[C@@H](CC(=O)N2CCC[C@@H]2c2ccccc2)C(=O)N[C@@H](C)c2ncc(Cc3ccccc3)[nH]2)no1 [CF-503134]	7400 nM and 7600 nM	90 nM and 57 nM	
CC(C)CCS(=O)(=O)N[C@@H](CC(=O)N1CCCC[C@@H]1C)C(=O)N[C@@H](C)c1ncc(-c2ccc(F)cc2F)[nH]1 [CF-503157]	7500 nM and 9660 nM		1070 nM and 691 nM
CC[C@H]1CCCCN1C(=O)C[C@H](NC(=O)CC(F)(F)F)C(=O)N[C@@H](C)c1nc2c(F)cccc2[nH]1 [CF-503319]	4200 nM	320 nM	
CC[C@H]1CCCCN1C(=O)C[C@H](NC(=O)CCC(C)C)C(=O)N[C@@H](C)c1nc2ccccc2[nH]1 [CF-503216]	14800 nM and 14500 nM	296 nM and 333 nM	
